This is an account of results in patent US20200239530A1, “COMPOUNDS AND METHODS OF MODULATING PROTEIN DEGRADATION” (Vividion Therapeutics, Inc., priority 2017, published 2020).

The target in assay [1] is T1, FAM120A Constitutive coactivator of PPAR-gamma-like protei (Homo sapiens, UniProt Q9NZB2).
T1 construct: 200 μL of lysate containing 5 mg/ml proteome was treated with 2 μL of 100× compound stock; endogenous in cells
T1 sequence (Q9NZB2 1-1118): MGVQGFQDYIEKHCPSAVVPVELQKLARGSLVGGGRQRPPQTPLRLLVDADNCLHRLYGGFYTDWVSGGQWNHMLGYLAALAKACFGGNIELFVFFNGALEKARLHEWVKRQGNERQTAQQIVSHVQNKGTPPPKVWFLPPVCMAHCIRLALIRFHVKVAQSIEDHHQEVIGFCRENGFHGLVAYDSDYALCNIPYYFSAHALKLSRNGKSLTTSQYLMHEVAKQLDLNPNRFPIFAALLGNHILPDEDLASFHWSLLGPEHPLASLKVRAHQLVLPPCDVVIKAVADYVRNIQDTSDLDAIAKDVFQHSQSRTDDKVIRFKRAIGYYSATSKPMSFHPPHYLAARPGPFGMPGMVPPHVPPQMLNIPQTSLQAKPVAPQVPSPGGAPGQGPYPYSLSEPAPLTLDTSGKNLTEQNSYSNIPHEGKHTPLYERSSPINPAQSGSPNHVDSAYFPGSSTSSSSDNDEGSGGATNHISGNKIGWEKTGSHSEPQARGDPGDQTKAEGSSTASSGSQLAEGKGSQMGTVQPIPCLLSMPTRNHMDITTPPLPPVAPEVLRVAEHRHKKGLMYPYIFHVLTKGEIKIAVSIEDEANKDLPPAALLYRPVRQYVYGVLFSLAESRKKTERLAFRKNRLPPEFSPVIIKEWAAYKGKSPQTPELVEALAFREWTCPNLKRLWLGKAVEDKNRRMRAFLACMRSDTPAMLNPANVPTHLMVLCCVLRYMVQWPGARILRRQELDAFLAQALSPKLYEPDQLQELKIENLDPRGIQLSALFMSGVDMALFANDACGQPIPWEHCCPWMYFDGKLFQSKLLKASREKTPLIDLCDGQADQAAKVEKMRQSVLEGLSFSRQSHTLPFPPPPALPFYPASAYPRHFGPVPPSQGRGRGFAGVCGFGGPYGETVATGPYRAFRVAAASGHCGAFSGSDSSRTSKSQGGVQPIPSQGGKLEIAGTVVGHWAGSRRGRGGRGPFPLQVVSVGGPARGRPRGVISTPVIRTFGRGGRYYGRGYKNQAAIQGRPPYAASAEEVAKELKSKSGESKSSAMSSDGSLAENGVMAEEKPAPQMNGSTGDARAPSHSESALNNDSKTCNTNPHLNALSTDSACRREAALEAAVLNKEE
Description: Cysteine liganding, probe competition. The format is binding. Summed up:
(§1)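 Read-out is loss of desthiobiotin iodoacetamide labelling at cysteines, measured on streptavidin-enriched tryptic peptides. Compound preincubation ran 1 hr at 25° C in PBS lysate holding 5 mg/ml proteome before the probe was added.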

Assay [2] concerns the target T2, HMOX2 Heme oxygenase 2 (Homo sapiens, UniProt P30519).
T2 construct: Cells were resuspended in cold PBS on ice and sonicated with a probe sonicator to achieve lysis; endogenous in cells
T2 sequence (P30519 1-316): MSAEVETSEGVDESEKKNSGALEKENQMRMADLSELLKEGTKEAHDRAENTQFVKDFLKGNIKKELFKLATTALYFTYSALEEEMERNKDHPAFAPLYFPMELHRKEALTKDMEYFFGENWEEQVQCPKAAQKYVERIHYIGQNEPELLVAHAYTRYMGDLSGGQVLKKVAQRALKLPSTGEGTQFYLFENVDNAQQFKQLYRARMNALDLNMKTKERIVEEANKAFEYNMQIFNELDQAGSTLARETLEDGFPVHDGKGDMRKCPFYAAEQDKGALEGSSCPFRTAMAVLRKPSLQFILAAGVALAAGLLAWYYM
Briefly: Cysteine liganding, probe competition. In kind it is binding. To be noted: for Liganded: HMOX2 Res# 265, uniprot P30519. The gist of the method: as §1

With `COc1ccc2c(c1)CCCN2C(=O)CCl` [KB02], the Liganded entry is reported as “YES” in assay [1] (FAM120A Res# 919, uniprot Q9NZB2) and “YES” in assay [2].

In the case of `O=C(CCl)Nc1cc(C(F)(F)F)cc(C(F)(F)F)c1` [KBO3], in assay [1] (uniprot Q9NZB2), the 100 ave is on record as −8.925, the “500 Max” value was found to be 55.62 and the 500 ave is 55.62. The “100 Max” value in assay [1] (uniprot Q9NZB2, in % (unit assumed)) was 13.09. In addition, the Liganded result in assay [2] is “YES”. Moreover, in assay [2] (uniprot P30519), the “100 Max” value stood at 93.81, the 100 ave is 81.435 and the 500 ave was determined as 88.6. In addition, the “500 Max” value in assay [2] (uniprot P30519, in % (unit assumed)) is listed as 98.54.
